From the supplement of paper PMC11061612

Key:
Assay in all cases: Bliss excess, mean over the matrix (fraction); higher = more synergy
CAL-78 (Chondrosarcoma) = tested on: CAL-78 (Chondrosarcoma)
Summary of the method: (§1)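 Bliss excess equals the observed combination effect minus the expected value EA + EB − EA·EB, where EA and EB are the effects of each agent alone. Combination Emax is the second-highest inhibition within the matrix. Inhibition was scaled from CellTiter-Glo 2.0 luminescence, with 0 set by vehicle wells and 1 by blank wells, after 72 hours of two-drug dosing of cells plated in 1536-well plates.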

[1] = tested on: CFPAC-1 (Pancreatic Carcinoma)
Summary of the method: as §1

[2] = tested on: COR-L23 (Non-Small Cell Lung Carcinoma)
Summary of the method: as §1

[3] = tested on: COR-L95 (Small Cell Lung Carcinoma)
Summary of the method: as §1

[4] = tested on: CTV-1 (T-Lymphoblastic Leukemia)
Summary of the method: as §1

[5] = tested on: HCC2157 (Breast Carcinoma)
Summary of the method: as §1

[6] = tested on: HT-29 (Colorectal Carcinoma)
Summary of the method: as §1

IGR-1 (Melanoma) = tested on: IGR-1 (Melanoma)
Summary of the method: as §1

J82 (Bladder Carcinoma) = tested on: J82 (Bladder Carcinoma)
Summary of the method: as §1

[7] = tested on: KARPAS-620 (Plasma Cell Myeloma)
Summary of the method: as §1

[8] = tested on: KATOIII (Gastric Carcinoma)
Summary of the method: as §1

[9] = tested on: LU-99A (Non-Small Cell Lung Carcinoma)
Summary of the method: as §1

[10] = tested on: MDA-MB-231 (Breast Carcinoma)
Summary of the method: as §1

[11] = tested on: NCI-H1793 (Lung Adenocarcinoma)
Summary of the method: as §1

[12] = tested on: SNU-C5 (Colorectal Carcinoma)
Summary of the method: as §1

[13] = tested on: SW1088 (Low Grade Glioma)
Summary of the method: as §1

[14] = tested on: SW1990 (Pancreatic Carcinoma)
Summary of the method: as §1

[15] = tested on: SW756 (Cervical Carcinoma)
Summary of the method: as §1

[16] = tested on: TGBC24TKB (Biliary Tract Carcinoma)
Summary of the method: as §1

[17] = tested on: U-266 (Plasma Cell Myeloma)
Summary of the method: as §1

| SMILES | Bliss excess (CAL-78 (Chondrosarcoma)) | Bliss excess [1] | Bliss excess [2] | Bliss excess [3] | Bliss excess [4] | Bliss excess [5] | Bliss excess [6] | Bliss excess (IGR-1 (Melanoma)) | Bliss excess (J82 (Bladder Carcinoma)) | Bliss excess [7] | Bliss excess [8] | Bliss excess [9] | Bliss excess [10] | Bliss excess [11] | Bliss excess [12] | Bliss excess [13] | Bliss excess [14] | Bliss excess [15] | Bliss excess [16] | Bliss excess [17] |
| --- | --- | --- | --- | --- | --- | --- | --- | --- | --- | --- | --- | --- | --- | --- | --- | --- | --- | --- | --- | --- |
| CN(CCO)CC[C@H](CSc1ccccc1)Nc1ccc(S(=O)(=O)NC(=O)c2ccc(N3CCC([C@@H](O)c4ccccc4-c4ccc(Cl)cc4)CC3)cc2)cc1S(=O)(=O)C(F)(F)F [AZD4320] + Cc1cc2ncnn2cc1Nc1ncc2c(n1)n(C1CCOCC1)c(=O)n2C [AZD7648] (first compound max 1 µM, 7x7, partner max 10 µM) | -0.0388 | -0.0345 | -0.0348 | 0.0276 | 0.001 | 0.0378 | -0.0293 | -0.0137 | -0.0435 | 0.0178 | -0.0343 | -0.0522 | -0.0082 | 0.0025 | -0.0257 | -0.0184 | -0.0418 | -0.051 | 0.0059 | -0.0005 |
| CN(CCO)CC[C@H](CSc1ccccc1)Nc1ccc(S(=O)(=O)NC(=O)c2ccc(N3CCC([C@@H](O)c4ccccc4-c4ccc(Cl)cc4)CC3)cc2)cc1S(=O)(=O)C(F)(F)F [AZD4320] + Cn1cnc2c(F)c(Nc3ccc(Br)cc3Cl)c(C(=O)NOCCO)cc21 [Selumetinib] (first compound max 1 µM, 7x7, partner max 3 µM) | -0.0388 | 0.0453 | 0.0645 | -0.0067 | 0.0708 | 0.0119 | 0.02 | 0.143 | -0.0144 | 0.0613 | -0.0086 | 0.0878 | -0.0013 | 0.0496 | 0.0837 | 0.0246 | 0.0357 | 0.0022 | 0.0369 | 0.13 |
| COc1nnc2ccc(N3CCC(c4ccc(OCCN5CCN(C)C(=O)[C@H]5C)cc4)CC3)nn12 [AZD5153] + C=CCn1c(=O)c2cnc(Nc3ccc(N4CCN(C)CC4)cc3)nc2n1-c1cccc(C(C)(C)O)n1 [AZD1775] (first compound max 1 µM, partner max 1 µM) | -0.0766 | -0.119 | -0.0459 | 0.0012 | 0.0151 | -0.0734 | -0.0532 | 0.0203 | 0.0514 | -0.0559 | -0.148 | -0.02 | -0.0768 | -0.0548 | -0.0291 | -0.0364 | -0.0567 | -0.05 | -0.0367 | -0.0922 |
| COc1nnc2ccc(N3CCC(c4ccc(OCCN5CCN(C)C(=O)[C@H]5C)cc4)CC3)nn12 [AZD5153] + CC1(C)CCC(CN2CCN(c3ccc(C(=O)NS(=O)(=O)c4ccc(NCC5CCOCC5)c([N+](=O)[O-])c4)c(Oc4cnc5[nH]ccc5c4)c3)CC2)=C(c2ccc(Cl)cc2)C1 [Venetoclax] (first compound max 1 µM, 7x7, partner max 1 µM) | -0.0999 | -0.0228 | -0.0504 | 0.0382 | -0.0322 | 0.0328 | -0.0288 | -0.0221 | -0.0672 | -0.0637 | -0.0861 | -0.0853 | -0.0755 | -0.0104 | -0.077 | -0.0439 | -0.0448 | -0.0461 | -0.0456 | -0.157 |
| COc1nnc2ccc(N3CCC(c4ccc(OCCN5CCN(C)C(=O)[C@H]5C)cc4)CC3)nn12 [AZD5153] + CCN(CCO)CCCOc1ccc2c(Nc3cc(CC(=O)Nc4cccc(F)c4)[nH]n3)ncnc2c1 [AZD2811] (first compound max 1 µM, 7x7, partner max 1 µM) | -0.0564 | -0.088 | -0.0551 | -0.0159 | 0.0988 | 0.0389 | -0.0281 | 0.0249 | -0.0148 | -0.0158 | -0.0288 | -0.0244 | -0.0353 | -0.0381 | -0.0541 | -0.0669 | -0.0477 | -0.0067 | -0.0349 | -0.0763 |
| COc1nnc2ccc(N3CCC(c4ccc(OCCN5CCN(C)C(=O)[C@H]5C)cc4)CC3)nn12 [AZD5153] + C[C@@H]1COCCN1C2=NC(=NC(=C2)C3(CC3)[S@](=N)(=O)C)C4=C5C=CNC5=NC=C4 [AZD6738] (first compound max 1 µM, 7x7, partner max 10 µM) | 0.0093 | 0.015 | -0.0016 | -0.0357 | 0.0194 | -0.0086 | -0.0307 | 0.0759 | 0.104 | -0.0429 | -0.0164 | -0.0213 | -0.0477 | 0.0127 | 0.0359 | 0.0059 | -0.0424 | 0.0204 | 0.0292 | -0.079 |
| COc1nnc2ccc(N3CCC(c4ccc(OCCN5CCN(C)C(=O)[C@H]5C)cc4)CC3)nn12 [AZD5153] + Cc1c2c(nn1C)CSCc1cc(n(C)n1)CSc1cc(c3ccccc3c1)OCCCc1c(C(=O)O)n(C)c3c-2c(Cl)ccc13 [AZD5991] (first compound max 1 µM, 7x7, partner max 1 µM) | -0.0263 | -0.0208 | -0.0296 | -0.0167 | -0.0515 | 0.0049 | -0.0227 | 0.0094 | 0.0439 | -0.0115 | -0.0765 | 0.0087 | -0.057 | -0.0484 | -0.0417 | 0.0112 | -0.0477 | -0.0238 | 0.0447 | -0.106 |
